Patent US20150080475A1, “Memantine Protects Inflammation-Related Degeneration of Dopamine Neurons Through Inhibition of Over-Activated Microglia and Release of Neurotrophic Factors From Astroglia” (priority 2009, published 2015)

Tested on: DA neurons
Assay: MPP+-induced reduction in DA uptake in neuron-enriched cultures
Assay type: cell-based
Settings: MPP+ 0.25 μM, seven days, neuron-enriched cultures
Description: Mesencephalic neuron-glia cultures were seeded (5×10^5/well) in 24 well plates precoated with poly D-lysine. Thirty-six hours postseeding, 5-10 μM cytosine β-D-arabinofuranoside was added to the culture. After 2 days, the cytosine β-D-arabinofuranoside was removed and replaced with fresh media. Neuron-enriched cultures are 98% pure, as indicated by ICC staining with OX-42 and GFAP antibodies. Neuron-enriched cultures were treated 7 days post-seeding. For microglia add-back cultures, the microglia were plated on top of the neuron-enriched culture at 6 days postseeding, resulting in the addition of either 10% (500 μL of 1×10^5) or 20% (500 μL of 2×10^5) microglia. […]
Cells were incubated in Krebs-Ringer buffer (16 mM NaH2PO4, 1.2 mM MgSO4, 1.3 mM EDTA, […], for 21 min at 37° C. with 1 μM [^3H] DA. Nonspecific uptake was blocked for DA with 10 μM mazindole. After incubation, cells were washed three times with 1 mL/well of ice-cold Krebs-Ringer buffer. Cells were then lysed with 0.5 mL/well of 1 N NaOH and mixed with 15 mL of scintillation fluid. Radioactivity was measured on a scintillation counter, where specific [^3H] DA uptake was calculated by subtracting the mazindole.
To determine whether the neuroprotective effect of MMT was dependent on the presence of glial cells, the effects of MMT on the neuron-enriched cultures were determined. […]

Question: How did the “reduction of DA uptake compared with control cultures” value turn out when C[n+]1ccc(-c2ccccc2)cc1 [MPP^+] was run?
Answer: 31%
